Here are results for nine molecules from US8883963B2 (Cadila Healthcare Limited, priority 2007, dated 2014).

Test [1] deals with C57BL/6J mice (mild hyperglycemic). The test is described as follows: In vivo glucose reduction, acute single dose 120-min time-course, oral route. More on the design: species or system mouse; unit not given here. The following applies: male C57BL/6J mice. On the procedure: Acute single dose 120-min time-course experiments were carried out in male C57BL/6J or db/db mice, age 8-12 weeks, bred in-house. Animals were housed in groups of 6 animals per cage, for a week, in order to habituate them to vivarium conditions (25±4° C., 60-65% relative humidity, 12:12 h light:dark cycle, with lights on at 7.30 am). All the animal experiments were carried out according to the internationally valid guidelines following approval by the ‘Zydus Research Center animal ethical committee’.
Two days prior to the study, the animals were randomised and divided into 5 groups (n=6), based upon their fed glucose levels. On the day of experiment, food was withdrawn from all the cages, water was given ad-libitum and were kept for overnight fasting. Vehicle (normal saline)/test/standard compounds were administered intraperitoneally (i.p.) or orally, on a body weight basis. Soon after the 0 min. blood collection from each animal, the subsequent blood collections were done at 30, 60 and 120 or up to 240 min., via retro-orbital route, under light ether anesthesia (Chen, D., et al., Diabetes Obesity Metabolism, 2005, 7, 307. Kim, J. G. et al., Diabetes, 2003, 52, 751).
(§1) Blood samples were centrifuged and the separated serum was immediately subjected for the glucose estimation. Serum for insulin estimation was stored at −70° C. until used for the insulin estimation. The glucose estimation was carried out with DPEC-GOD/POD method (Ranbaxy Fine Chemicals Limited, Diagnostic division, India), using Spectramax-190, in 96-microwell plate reader (Molecular devices Corporation, Sunnyvale, Calif.). […] The AUC and BCAUC obtained from graphs were analyzed for one way ANOVA, followed by Dunnett's post test, using Graph Pad prism software. Furthermore, the insulin estimation was carried out using rat/mouse insulin ELISA kit (Linco research, Missouri USA). Changes in the blood glucose levels, at 0, 30, 60 and 120 min, with selected peptidomimetics are shown in Table 7 (via ip route of administration) and Table 8 (via oral route of administration) respectively.

Test [2] shares this test system. Description: In vivo glucose reduction, acute single dose 120-min time-course, i.p. route. More on the design: species or system mouse; unit not given here. The following applies: male C57BL/6J mice. On the procedure:
All the animal experiments were carried out according to the internationally valid guidelines following approval by the ‘Zydus Research Center animal ethical committee’.
Two days prior to the study, the animals were randomised and divided into 5 groups (n=6), based upon their fed glucose levels. On the day of experiment, food was withdrawn from all the cages, water was given ad-libitum and were kept for overnight fasting. Vehicle (normal saline)/test/standard compounds were administered intraperitoneally (i.p.) or orally, on a body weight basis.
as §1, with “USA).” for “USA). Changes in the blood glucose levels, at 0, 30, 60 and 120 min, with selected peptidomimetics are shown in Table 7 (via ip route of administration) and Table 8 (via oral route of administration) respectively.”

In the case of `CCc1cc(OC)ccc1-c1ccc(CC(NC(=O)[C@H](CC(=O)O)NC(=O)[C@H](CO)NC(=O)[C@@H](NC(=O)[C@H](Cc2ccccc2)NC(=O)[C@@H](NC(=O)CNC(=O)C(CCC#N)NC(=O)C(C)(C)NC(=O)[C@@H](N)Cc2c[nH]cn2)[C@@H](C)O)[C@@H](C)O)C(=O)NC(CCCc2cc(C)cc(C)c2)C(N)=O)cc1` (single isomer, unassigned) [Seq. ID. 30], the blood glucose levels in test [1] (2 μM/kg oral, 0 min) worked out at 183 ± 2.4; in test [1] (2 μM/kg oral, 30 min) it was 119 ± 3.1; in test [1] (2 μM/kg oral, 60 min), 112 ± 4.8; in test [1] (2 μM/kg oral, 120 min), 110 ± 2.5; in test [2] (30 nM/kg i.p., 0 min) it was 183 ± 3.6; in test [2] (30 nM/kg i.p., 30 min) it was 117 ± 3.3. Also, the blood glucose levels in test [2] (30 nM/kg i.p., 60 min) stood at 116 ± 3.2; in test [2] (30 nM/kg i.p., 120 min) it was 117 ± 1.4.
As for `CCc1cc(OC)ccc1-c1ccc(CC(NC(=O)[C@H](CC(=O)O)NC(=O)[C@H](CO)NC(=O)[C@@H](NC(=O)[C@H](Cc2ccccc2)NC(=O)[C@@H](NC(=O)CNC(=O)C(CCC#N)NC(=O)C(C)(C)NC(=O)[C@@H](N)Cc2c[nH]cn2)[C@@H](C)O)[C@@H](C)O)C(=O)NC(CCCc2ccccc2F)C(N)=O)cc1` (single isomer, unassigned) [Seq. ID. 77], the blood glucose levels in test [1] (2 μM/kg oral, 0 min) is recorded as 183 ± 2.1; in test [1] (2 μM/kg oral, 30 min) it was 118 ± 3.4; in test [1] (2 μM/kg oral, 60 min) it was 113 ± 4.6; in test [1] (2 μM/kg oral, 120 min) it was 111 ± 2.8; in test [2] (20 nM/kg i.p., 0 min), 183 ± 4.9; in test [2] (20 nM/kg i.p., 30 min), 120 ± 2.8. The blood glucose levels is recorded as 129 ± 3.0 in test [2] (20 nM/kg i.p., 60 min) and 139 ± 2.0 in test [2] (20 nM/kg i.p., 120 min).
For the molecule `CCc1cc(OC)ccc1-c1ccc(CC(NC(=O)[C@H](CC(=O)O)NC(=O)[C@H](CO)NC(=O)[C@@H](NC(=O)C(C)(Cc2ccccc2F)NC(=O)[C@@H](NC(=O)CNC(=O)C(CCC#N)NC(=O)C(C)(C)NC(=O)[C@H](Cc2c[nH]cn2)NC(C)=O)[C@@H](C)O)[C@@H](C)O)C(=O)NC(CCCc2ccccc2F)C(N)=O)cc1` (single isomer, unassigned) [Seq. ID. 207], the blood glucose levels amounted to 183 ± 2.4 in test [1] (2 μM/kg oral, 0 min); 116 ± 3.1 in test [1] (2 μM/kg oral, 30 min); 112 ± 4.8 in test [1] (2 μM/kg oral, 60 min); 110 ± 2.5 in test [1] (2 μM/kg oral, 120 min); 184 ± 5.0 in test [2] (50 nM/kg i.p., 0 min); 122 ± 3.8 in test [2] (50 nM/kg i.p., 30 min). Also, the blood glucose levels in test [2] (50 nM/kg i.p., 60 min) was found to be 128 ± 2.1; in test [2] (50 nM/kg i.p., 120 min), 149 ± 2.3.
For the molecule `CCc1cc(OC)ccc1-c1ccc(CC(CNC(CCCc2ccccc2)C(N)=O)NC[C@H](CC(=O)O)NC(=O)[C@H](CO)NC(=O)[C@@H](NC(=O)C(C)(Cc2ccccc2F)NC(=O)[C@@H](NC(=O)CNC(=O)C(CCC#N)NC(=O)C(C)(C)NC(=O)[C@@H](N)Cc2c[nH]cn2)[C@H](C)O)[C@H](C)O)cc1` (single isomer, unassigned) [Seq. ID. 202], the blood glucose levels in test [1] (2 μM/kg oral, 0 min) was determined as 184 ± 2.5; in test [1] (2 μM/kg oral, 30 min), 115 ± 3.6; in test [1] (2 μM/kg oral, 60 min), 113 ± 4.2; in test [1] (2 μM/kg oral, 120 min), 110 ± 2.4; in test [2] (50 nM/kg i.p., 0 min), 183 ± 5.1; in test [2] (50 nM/kg i.p., 30 min), 122 ± 3.1. Besides, the blood glucose levels stood at 130 ± 2.3 in test [2] (50 nM/kg i.p., 60 min) and 148 ± 2.2 in test [2] (50 nM/kg i.p., 120 min).
As to `CCc1cc(OC)ccc1-c1ccc(CC(NC(=O)[C@H](CC(=O)O)NC(=O)[C@H](CO)NC(=O)[C@@H](NC(=O)C(C)(Cc2ccccc2F)NC(=O)[C@@H](NC(=O)CNC(=O)C(CCC#N)NC(=O)C(C)(C)NC(=O)[C@@H](N)Cc2c[nH]cn2)[C@H](C)O)[C@H](C)O)C(=O)N(C)C(CCCc2ccccc2)C(N)=O)cc1` (single isomer, unassigned) [Seq. ID. 130], the blood glucose levels is 183 ± 2.4 in test [1] (2 μM/kg oral, 0 min); 116 ± 3.1 in test [1] (2 μM/kg oral, 30 min); 112 ± 4.8 in test [1] (2 μM/kg oral, 60 min); 110 ± 2.5 in test [1] (2 μM/kg oral, 120 min); 181 ± 5.2 in test [2] (30 nM/kg i.p., 0 min); 119 ± 2.6 in test [2] (30 nM/kg i.p., 30 min). The blood glucose levels in test [2] (30 nM/kg i.p., 60 min) came to 117 ± 2.1; in test [2] (30 nM/kg i.p., 120 min), 119 ± 2.3.
As to `CCc1cc(OC)ccc1-c1ccc(CC(NC(=O)[C@H](CC(=O)O)NC(=O)[C@H](CO)NC(=O)[C@@H](NC(=O)C(C)(Cc2ccccc2F)NC(=O)[C@@H](NC(=O)CNC(=O)C(CCC#N)NC(=O)C(C)(C)NC(=O)[C@@H](N)Cc2c[nH]cn2)[C@H](C)O)[C@H](C)O)C(=S)NC(CCCc2ccccc2F)C(N)=O)cc1` (single isomer, unassigned) [Seq. ID. 168], the blood glucose levels in test [1] (1.5 μM/kg oral, 0 min) is 183 ± 2.0; in test [1] (1.5 μM/kg oral, 30 min) it was 117 ± 1.1; in test [1] (1.5 μM/kg oral, 60 min), 112 ± 1.1; in test [1] (1.5 μM/kg oral, 120 min), 110 ± 1.8; in test [2] (20 nM/kg i.p., 0 min), 182 ± 3.3; in test [2] (20 nM/kg i.p., 30 min), 120 ± 3.6. The blood glucose levels came to 127 ± 3.4 in test [2] (20 nM/kg i.p., 60 min) and 145 ± 2.1 in test [2] (20 nM/kg i.p., 120 min).
Consider `CCc1cc(OC)ccc1-c1ccc(CC(C(=O)N(C)C(CCCc2ccccc2)C(N)=O)N(C)C(=O)[C@H](CC(=O)O)NC(=O)[C@H](CO)NC(=O)[C@@H](NC(=O)C(C)(Cc2ccccc2F)NC(=O)[C@@H](NC(=O)CNC(=O)C(CCC#N)NC(=O)C(C)(C)NC(=O)[C@@H](N)Cc2c[nH]cn2)[C@H](C)O)[C@H](C)O)cc1` (single isomer, unassigned) [Seq. ID. 142], for which the blood glucose levels in test [1] (2 μM/kg oral, 0 min) amounted to 185 ± 2.3; in test [1] (2 μM/kg oral, 30 min) it was 115 ± 3.8; in test [1] (2 μM/kg oral, 60 min) it was 113 ± 4.9; in test [1] (2 μM/kg oral, 120 min), 109 ± 2.2; in test [2] (30 nM/kg i.p., 0 min), 183 ± 4.9; in test [2] (30 nM/kg i.p., 30 min), 117 ± 2.5. The blood glucose levels is given as 116 ± 2.3 in test [2] (30 nM/kg i.p., 60 min) and 119 ± 2.0 in test [2] (30 nM/kg i.p., 120 min).
Turning to `CCc1cc(OC)ccc1-c1ccc(CC(CNC(CCCc2ccccc2)C(N)=O)NC[C@H](CC(=O)O)NC(=O)[C@H](CO)NC(=O)[C@@H](NC(=O)C(C)(Cc2ccccc2F)NC(=O)[C@@H](NC(=O)CNC(=O)[C@H](CCC(N)=O)NC(=O)C(C)(C)NC(=O)[C@H](Cc2c[nH]cn2)NC(C)=O)[C@H](C)O)[C@H](C)O)cc1` (single isomer, unassigned) [Seq. ID. 197], the blood glucose levels in test [2] (50 nM/kg i.p., 0 min) is 180 ± 4.2; in test [2] (50 nM/kg i.p., 30 min), 113 ± 3.2; in test [2] (50 nM/kg i.p., 60 min) it was 112 ± 2.4; in test [2] (50 nM/kg i.p., 120 min), 110 ± 1.9.
With `CCc1cc(OC)ccc1-c1ccc(CC(CNC(CCCc2ccccc2)C(N)=O)NC[C@H](CC(=O)O)NC(=O)[C@H](CO)NC(=O)[C@@H](NC(=O)C(C)(Cc2ccccc2F)NC(=O)[C@@H](NC(=O)CNC(=O)[C@H](CCC(N)=O)NC(=O)C(C)(C)NC(=O)[C@H](Cc2c[nH]cn2)NC(=O)OC)[C@@H](C)O)[C@@H](C)O)cc1` (single isomer, unassigned) [Seq. ID. 194], the blood glucose levels in test [2] (10 nM/kg i.p., 0 min) stood at 183 ± 2.2; in test [2] (10 nM/kg i.p., 30 min) it was 113 ± 2.8; in test [2] (10 nM/kg i.p., 60 min), 113 ± 2.9; in test [2] (10 nM/kg i.p., 120 min) it was 114 ± 2.0.
